Source: US20260042755A1, “GPR6 INVERSE AGONISTS” (MapLight Therapeutics, Inc., priority 2022, published 2026)
pIC50: −log10 of the molar value.

Key:
GPR3 = molecular target: T1, GPR3 (Homo sapiens, UniProt P46089); assay: GPR3 antagonist functional cAMP assay (LANCE Ultra cAMP TR-FRET, CHO cells stably expressing GPR3); assay type: cell-based
T1 construct: expressed in transfected cells; host or cells: CHO cells
Summary of the method: (§1)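 Stable CHO-GPR6 or CHO-GPR3 cells (10,000/well) in Krebs-Ringer buffer with 0.1% BSA and 150 μM Ro 20-1724 were exposed to compounds for 45 min at 37° C (0.1% DMSO). cAMP read by LANCE Ultra TR-FRET; IC50 from 4-parameter fit normalized to DMSO and reference compounds.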

GPR6 = molecular target: T2, GPR6 (Homo sapiens, UniProt P46095); assay: GPR6 antagonist functional cAMP assay (LANCE Ultra cAMP TR-FRET, CHO cells stably expressing GPR6); assay type: cell-based
T2 construct: expressed in transfected cells; host or cells: CHO cells
T2 sequence (P46095 whole entry): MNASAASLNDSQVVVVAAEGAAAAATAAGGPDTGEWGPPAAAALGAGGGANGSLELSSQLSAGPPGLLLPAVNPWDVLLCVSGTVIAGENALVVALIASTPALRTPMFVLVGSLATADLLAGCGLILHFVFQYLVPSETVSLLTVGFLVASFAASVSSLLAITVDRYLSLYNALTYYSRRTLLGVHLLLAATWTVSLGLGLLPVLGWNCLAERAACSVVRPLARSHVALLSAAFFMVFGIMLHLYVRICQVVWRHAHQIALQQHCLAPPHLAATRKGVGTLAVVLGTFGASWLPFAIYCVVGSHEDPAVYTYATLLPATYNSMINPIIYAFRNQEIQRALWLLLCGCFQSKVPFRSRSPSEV
Summary of the method: as §1

[1] = CHO cells stably expressing GPR3, cAMP assay
[2] = CHO cells stably expressing GPR6, cAMP assay
[3] = CHO cells stably expressing GPR3, cAMP assay (Example 24)
[4] = CHO cells stably expressing GPR6, cAMP assay (Example 24)

T1 sequence (P46089 whole entry, species assumed): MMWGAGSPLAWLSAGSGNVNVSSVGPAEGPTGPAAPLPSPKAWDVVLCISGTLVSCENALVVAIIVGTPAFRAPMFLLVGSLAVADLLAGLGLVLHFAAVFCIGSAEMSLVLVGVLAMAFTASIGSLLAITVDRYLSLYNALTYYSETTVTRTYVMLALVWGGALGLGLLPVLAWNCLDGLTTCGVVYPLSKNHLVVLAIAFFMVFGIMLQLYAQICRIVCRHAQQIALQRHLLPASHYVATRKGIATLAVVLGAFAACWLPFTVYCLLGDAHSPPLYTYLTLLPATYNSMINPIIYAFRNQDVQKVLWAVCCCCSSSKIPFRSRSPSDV

| SMILES | pIC50 (GPR3; procedure of Example 24) | pIC50 (GPR6; procedure of Example 24) | pIC50 (GPR3; [1]) | pIC50 (GPR6; [2]) | other results |
| --- | --- | --- | --- | --- | --- |
| CC(C)(O)C(O)c1cc2nc(N3CCN(Cc4ccccc4F)CC3)c(-c3cnn(C(F)F)c3)nc2cn1 (stereo not shown) [Compound 559, 1-{3-[1-(difluoromethyl)-4-pyrazolyl]-2-{4-[(o-fluorophenyl)methyl]-1-piperazinyl}-1,4,6-triaza-7-naphthyl}-2-methyl-1,2-propanediol] |  |  | 4.52 to 6.00 | 6.00 to 7.00 |  |
| Cn1cc(-c2nc3cc(C(O)C(C)(C)O)ncc3nc2N2CCC(Oc3ccc(F)cc3F)CC2)cn1 (single isomer, unassigned) [Compound 561] |  |  | 6.00 to 7.00 | > 7.00 |  |
| CC(=O)N1CCc2nc(C3CCC(Oc4ccc(F)cc4F)CC3)c(-c3ncco3)nc2C1 (stereo not shown) [Compound 302, 1-{2-[4-(2,4-difluorophenoxy)cyclohexyl]-3-(1,3-oxazol-2-yl)-5H,6H,7H,8H-pyrido[3,4-b]pyrazin-6-yl}ethan-1-one] | 4.52 to 6.00 | 4.52 to 6.00 |  |  |  |
| Cn1cc(-c2nc3cc(Cl)ncc3nc2N2CCN(Cc3ccc(F)cc3F)CC2)cn1 [Compound 227, 1-[7-chloro-2-(1-methyl-1H-pyrazol-4-yl)pyrido[3,4-b]pyrazin-3-yl]-4-[(2,4-difluorophenyl)methyl] piperazine] |  |  |  |  | pIC50 (GPR3; [3]): 4.52 to 6.00; pIC50 (GPR6; [4]): 6.00 to 7.00 |
| CC(=O)N1CCc2nc(N3CCN(C(=O)c4ccc(Cl)c(C)c4)CC3)c(-c3cnn(C)c3)nc2C1 [Compound 539, 1-{2-[4-(4-chloro-3-toluoyl)-1-piperazinyl]-3-(1-methyl-4-pyrazolyl)-5,6,7,8-tetrahydro-1,4,6-triaza-6-naphthyl}-1-ethanone] |  |  | 4.52 to 6.00 | 4.52 to 6.00 |  |
| CC(=O)N1CCc2nc(N3CCN(C(=O)c4ccc(F)cc4)CC3)c(-c3cnn(C)c3)nc2C1 [Compound 255, 1-{2-[4-(4-fluorobenzoyl)piperazin-1-yl]-3-(1-methyl-1H-pyrazol-4-yl)-5H,6H,7H,8H-pyrido[3,4-b]pyrazin-6-yl}ethan-1-one] |  |  |  |  | pIC50 (GPR3; [3]): 4.52 to 6.00; pIC50 (GPR6; [4]): 4.52 to 6.00 |
| CC(=O)N1Cc2nc(-c3cnn(C)c3)c(N3CCC(Oc4ccc(F)cc4F)CC3)nc2CC1CO (stereo not shown) [Compound 490, 1-{2-[4-(2,4-difluorophenoxy)piperidin-1-yl]-7-(hydroxymethyl)-3-(1-methyl-1H-pyrazol-4-yl)-5H,6H,7H,8H-pyrido[3,4-b]pyrazin-6-yl}ethan-1-one] |  |  | 4.52 to 6.00 | 6.00 to 7.00 |  |
| CC(=O)N1CCc2nc(N3CCN(Cc4ccncc4)CC3)c(-c3cnn(C)c3)nc2C1 [Compound 518, 1-[3-(1-methyl-4-pyrazolyl)-2-{4-[(4-pyridyl)methyl]-1-piperazinyl}-5,6,7,8-tetrahydro-1,4,6-triaza-6-naphthyl]-1-ethanone] |  |  | 4.52 to 6.00 | 4.52 to 6.00 |  |
| COc1cccc(-c2nc3c(nc2N2CCN(Cc4cc(Cl)ccc4Cl)CC2)CCN(C(C)=O)C3)n1 [Compound 183, 1-(2-{4-[(2,5-dichlorophenyl)methyl]piperazin-1-yl}-3-(6-methoxypyridin-2-yl)-5H,6H,7H,8H-pyrido[3,4-b]pyrazin-6-yl)ethan-1-one] |  |  |  |  | pIC50 (GPR3; [3]): 4.52 to 6.00; pIC50 (GPR6; [4]): > 7.00 |
| CC(=O)N1CCc2nc(N3CCC(C(=O)Nc4ccc(F)cc4F)C3)c(-c3cnn(C)c3)nc2C1 (stereo not shown) [Compound 365, 1-[6-acetyl-3-(1-methyl-1H-pyrazol-4-yl)-5H,6H,7H,8H-pyrido [3,4-b]pyrazin-2-yl]-N-(2,4-difluorophenyl)pyrrolidine-3-carboxamide] | ≤ 4.52 | ≤ 4.52 |  |  |  |
| CC(=O)N1CCc2nc(N3CCC(C(=O)N4CCN(C)C(=O)C4)C3)c(-c3cnn(C)c3)nc2C1 (stereo not shown) [Compound 390, 4-{1-[6-acetyl-3-(1-methyl-1H-pyrazol-4-yl)-5H,6H,7H,8H-pyrido[3,4-b]pyrazin-2-yl]pyrrolidine-3-carbonyl}-1-methylpiperazin-2-one] |  |  |  |  | pIC50 (GPR3; [3]): 4.52 to 6.00; pIC50 (GPR6; [4]): 4.52 to 6.00 |

More lines, main results first:

| pIC50 (GPR3; procedure of Example 24) | pIC50 (GPR6; procedure of Example 24) | pIC50 (GPR3; [1]) | pIC50 (GPR6; [2]) | SMILES | other results |
| --- | --- | --- | --- | --- | --- |
| 4.52 to 6.00 | 6.00 to 7.00 |  |  | CC(=O)N1CCc2nc(N3CCC(=Cc4ccccc4)CC3)c(-c3cnn(C)c3)nc2C1 [Compound 646, 1-[2-(4-benzylidene-1-piperidyl)-3-(1-methyl-4-pyrazolyl)-5,6,7,8-tetrahydro-1,4,6-triaza-6-naphthyl]-1-ethanone] |  |
|  |  | 4.52 to 6.00 | 6.00 to 7.00 | CCn1cc(-c2nc3cnc([C@@H](O)C(C)(C)O)cc3nc2N2CCN(Cc3ccc(F)cc3F)CC2)cn1 (single isomer, unassigned) [Compound 574] |  |
| 4.52 to 6.00 | 4.52 to 6.00 |  |  | Cn1cc(-c2nc3cnc(C4CC4CO)cc3nc2N2CCC(Oc3ccc(F)cc3F)CC2)cn1 (stereo not shown) [Compound 768, (2-{2-[4-(2,4-difluorophenoxy)-1-piperidyl]-3-(1-methyl-4-pyrazolyl)-1,4,6-triaza-7-naphthyl}cyclopropyl)methanol] |  |
|  |  | 4.52 to 6.00 | 4.52 to 6.00 | Cn1cc(-c2nc3ccc(C(O)C(C)(C)O)nc3nc2N2CCC(Oc3ccc(F)cc3F)CC2)cn1 (stereo not shown) [Compound 587, 1-{3-[4-(2,4-difluorophenoxy)-1-piperidyl]-2-(1-methyl-4-pyrazolyl)-1,4,5-triaza-6-naphthyl}-2-methyl-1,2-propanediol] |  |
| > 7.00 | > 7.00 |  |  | CC(C)(O)[C@H](O)c1cc2nc(-c3cnn(CF)c3)c(N3CCC(Cc4ccc(F)cc4F)CC3)nc2cn1 (single isomer, unassigned) [Compound 787] |  |
| 4.52 to 6.00 | 4.52 to 6.00 |  |  | CC(=O)N1CCc2nc(N3CCC(Cc4ccc(F)cc4F)C3)c(-c3cnn(C)c3)nc2C1 (stereo not shown) [Compound 738, 1-(2-{3-[(2,4-difluorophenyl)methyl]-1-pyrrolidinyl}-3-(1-methyl-4-pyrazolyl)-5,6,7,8-tetrahydro-1,4,6-triaza-6-naphthyl)-1-ethanone] |  |
| 4.52 to 6.00 | 6.00 to 7.00 |  |  | CC(C)(O)[C@](C)(O)c1cc2nc(-c3cnn(CF)c3)c(N3CCN(Cc4ccc(F)cc4F)CC3)nc2cn1 (single isomer, unassigned) [Compound 712] |  |
| 6.00 to 7.00 | > 7.00 |  |  | COCC(O)c1cc2nc(-c3cnn(C)c3)c(N3CCC(Oc4ccc(F)cc4F)CC3)nc2cn1 (stereo not shown) [Compound 644, 1-{3-[4-(2,4-difluorophenoxy)-1-piperidyl]-2-(1-methyl-4-pyrazolyl)-1,4,6-triaza-7-naphthyl}-2-methoxy-1-ethanol] |  |
| 4.52 to 6.00 | 6.00 to 7.00 |  |  | CC(=O)N1CCc2nc(N3CCC(O)(Cc4ccc(F)cc4F)CC3)c(-c3cnn(C)c3)nc2C1 [Compound 699, 1-(2-(4-(2,4-difluorobenzyl)-4-hydroxypiperidin-1-yl)-3-(1-methyl-1H-pyrazol-4-yl)-7,8-dihydropyrido[3,4-b]pyrazin-6(5H)-yl)ethan-1-one] |  |
| 4.52 to 6.00 | 6.00 to 7.00 |  |  | CCn1cc(-c2nc3cnc([C@](C)(O)C(C)(C)O)cc3nc2N2CCN(Cc3ccc(F)cc3F)CC2)cn1 (single isomer, unassigned) [Compound 697] |  |
| 4.52 to 6.00 | 4.52 to 6.00 |  |  | CC(C)(O)[C@H](O)c1cc2nc(-c3cn[nH]c3)c(N3CCN(Cc4ccc(F)cc4F)CC3)nc2cn1 (single isomer, unassigned) [Compound 799] |  |
|  |  | 4.52 to 6.00 | 6.00 to 7.00 | CC(C)(O)C(=O)c1cc2nc(N3CCN(Cc4ccc(F)cc4F)CC3)c(-c3cnn(CF)c3)nc2cn1 [Compound 568, 1-(2-{4-[(2,4-difluorophenyl)methyl]-1-piperazinyl}-3-[1-(fluoromethyl)-4-pyrazolyl]-1,4,6-triaza-7-naphthyl)-2-hydroxy-2-methyl-1-propanone] |  |
